Assay results: US20260131033A1, “RADIOLABELED FRUCTOSE DERIVATIVES FOR MEDICAL IMAGING” (Yellowbird Diagnostics Inc., priority 2023, published 2026)
Values belong to the molecule of their own block, whether it stands above or below them.

What was measured:
[1] = tested on: HepG2 human hepatocarcinoma cells; assay: Tracing of [U^13C]-fructose analog metabolism in vitro by LC-MS; type: cell-based; conditions: for metabolic fate / main ^13C-labelled cellular product / metabolism through the polyol pathway: 25 mM ^13C-labelled analog; for formation of glucose-6-phosphate: polyol pathway
Description: In order to characterize the structure-activity effect of fructose deoxyfluorination on metabolic flux, the metabolism of isotopically labelled [U^13C]-fructose, and [U^13C]-1-, [U^13C]-6-, and [U^13C]-4-FDF deoxyfluorinated fructose analogs was evaluated in vitro in HepG2 human hepatocarcinoma cells by mass spectrometry (FIGS. 3A-3G). HepG2 were chosen as a model cell line due to a recent report by Tee et al. outlining their propensity for fructolysis (Tee, S. S. et al., 2022). [U^13C]-1- and [U^13C]-6-FDF were synthesized according to previously published methods (Haradahira, T. et al., 1995; Wuest, M. et al., 2011), and [U^13C]-4-FDF was synthesized as described hereinabove (Scheme 3).
Tracing of [U^13C]-fructose metabolism in vitro. Human hepatocellular carcinoma cells (HepG2) were grown in Dulbecco's modified Eagle medium (DMEM) supplemented with 10% heat-inactivated fetal bovine serum (FBS) and 1% penicillin-streptomycin (P/S) until 80% confluent under cell culture conditions (37° C., 5% CO2, humidified), at which point they were passaged. Cells were passaged three times before being seeded in to a 6-well plate and grown until 80% confluent. Supplemented media was aspirated and replaced with lactated Ringer's buffer (LRB) alone or containing 25 mM [U^13C]-1-FDF, [U^13C]-4-FDF, or [U^13C]-6-FDF. Cells were incubated under cell culture conditions for 0, 15, 30, or 60 min. Following incubation, the plates were placed on ice and wells were aspirated. Wells were washed three times with ice-cold ammonium formate buffer (150 mM, pH 7.4) to remove unbound probe. A chilled (−20° C.) solution of 1:1 methanol:water was added to the wells and cells were scraped off of the wells into the solution. This solution was collected into bead-beater tubes containing 6 beads and stored at −80° C. until further analysis was performed.
Levels of fructose metabolites were assessed by liquid chromatography mass spectrometry (LC-MS). Sample temperature was maintained on ice or dry ice where possible, and all solvents were MS grade and pre-equilibrated to −20° C.
Metabolite extraction. Cell pellets were collected to a pre-chilled 2 mL tube containing 6 washed ceramic beads (1.4 mm). 380 μl of methanol:water (1:1) was added in the tube and kept in −80° C. until the day of metabolite extraction. On the day of extraction, samples were vortexed for 10 s and cell lysis was done by beating for 60 s at 2000 rpm (bead beating was done twice) after adding 220 μL of acetonitrile. Samples were then incubated with a 2:1 dichloromethane:water solution on ice for 10 minutes. The polar and non-polar phases were separated by centrifugation at 4000 g for 10 minutes at 1° C. The resulting upper phase, consisting of polar metabolites was dried with a refrigerated (−4° C.) centrivap concentrator (Labconco) and stored at −80° C. before LC-MS analyses.
LC-MS metabolite quantification. Samples to be injected in -ESI were re-suspended with 75% acetonitrile, cleared by centrifugation and run on an Agilent 6545B Q-TOF mass spectrometer equipped with a 1290 Infinity II ultra-high performance LC (Agilent Technologies). Continuous internal mass calibration was executed using signals from purine [12,000 full width at half maximum (FWHM) resolution] and hexakis (1H,1H,3H-tetrafluoropropoxy) phosphazine (24,000 FWHM resolution). All study samples were randomized before analysis and run using both high and low pH hydrophilic interaction chromatography (HILIC-Z) in negative ionization mode. HILIC separation was obtained using the Poroshell 120 HILIC-Z column (2.1 100 mm, […]; Agilent) and corresponding guard column. The chromatographic conditions and mass spectrometry acquisition parameters were as described elsewhere (Zhu, Z. et al., 2023). Metabolite identification was confirmed by exact mass, retention time and subsequent MS/MS fragmentation for where standards are available. For the fluoro-fructose labelled metabolites, exact mass and MS/MS was considered for metabolite confirmation. […]

[2] = Wuest, M. et al., 2018; cited from earlier work
[3] = Image-based dosimetry using OLINDA software; type: in vivo; conditions: all tissues, Balb/C mice, relative to [^18F]-2-fluoro-2-deoxyglucose
Description: Image-based dosimetry was evaluated in Balb/C mice (n=4) using OLINDA software. […] The bottom plot is a zoom of the y-axis from the top plot.

[4] = tested on: heterotopic HepG2 xenograft mouse model; assay: Comparative PET/CT biodistribution in heterotopic HepG2 xenograft mouse model; type: in vivo
Description: After the confirmation of cell uptake and intracellular trapping of [U^13C]4-FDF, and the successful production of the radiofluorinated analog, the biodistribution of [^18F]4-FDF was evaluated in a heterotopic HepG2 xenograft mouse model and compared to the biodistribution of [^18F]6-FDF and [^18F]FDG. PET/CT images shown are the summed images from 20-45 min after intravenous injection of (FIG. 4A) [^18F]4-FDF, (FIG. 4B) [^18F]6-FDF, or (FIG. 4C) [^18F]FDG. Sagittal, coronal, and maximum intensity projection (MIP) are shown, in addition to axial sections at the level of the brain, heart, liver/kidneys, and hips. […] Purple represents an increase in AUC and blue represents a decrease in AUC. The values are normalized fold-change in AUC.
Eight-week-old female nu/nu mice were inoculated with 10×10^6 HepG2 cells suspended in 50% Matrigel:DMEM subcutaneously under the left shoulder. Within 3-weeks of implantation, mice were imaged by PET/CT.
PET/CT Imaging. PET/CT imaging was carried out on a Bruker Si78PET/CT scanner with a 4-position hotel having adjustable isoflurane and respiratory monitoring for each position (Bruker USA). Tail veins were catheterized, and an anatomical CT was acquired over the whole of the mouse bodies using the “rat” settings. PET acquisition was started just prior to a bolus i.v. injection of approximately 200 μCi of radiotracer. Dynamic scans were acquired in list mode format over 45 min and sorted into 16×0.5-mm sinogram bins for image reconstruction (4×15 s, 4×60 s and 8×300 s). Iterative reconstruction was performed using 3D ordered-subsets expectation maximization (3D-OSEM) followed by fast maximum a posteriori (fastMAP) using Paravision 360 software v.3.4 (Bruker, USA). Four-mouse images were split into individual mice, and the bed was removed using PMOD v (Bruker, USA). VivoQuant v.2022 (InviCRO) was used for visualization of radioradiotracer uptake in tissues, to define the three-dimensional (3D) volumes of interest (VOI) and for 3D-visualisation to create volume rendering technique images. The count densities were averaged for all volumes of interest at each time point to obtain a time versus activity curve (TAC). Tumor and tissue TACs were normalized to injected dose, measured by a CRC-15 PET dose calibrator (Capintec, Inc., NJ, USA), and expressed as percentage injected dose per cubic centimeter of tissue (% ID/cc).

concussed mouse brain = assay: PET/CT imaging of mice after closed-head concussive impact; type: in vivo, Balb/C mice
Description: Arrowhead indicates approximate location and direction of concussive blow. Mice were either left without head impact (Naïve), or received a single closed-head impact vertically at bregma 48 hrs prior to imaging. […] Average images from 20-40 min after the commencement of the scan are shown.

[5] = tested on: mouse model of systemic inflammation (LPS); assay: [^18F]4-FDF PET/CT in LPS mouse model of systemic inflammation; type: in vivo
Description: In order to further investigate whether a fructolytic switch occurs in inflammatory neural and cardiac tissues, a mouse model of systemic inflammation was examined. [^18F]4-FDF PET/CT was performed on mice receiving vehicle (FIG. 5A) or bacterial cell wall LPS (FIG. 5B) 24 hr after injection. Sagittal, coronal, MIP, and axial sections of the brain, heart and muscle are shown. Time-activity curves (TAC) for brain (FIG. 5C), heart (FIG. 5D), and muscle (FIG. 5E) are shown for mice receiving vehicle (−LPS) or LPS (+LPS). Solid lines are the means and dotted lines are standard deviation. […] The plots show individual data points (circles), mean (long line) and s.d. (vertical line). * p<0.05 by ANOVA followed by Tukey's test.
Mice receiving saline vehicle (FIG. 5A) or intraperitoneal bacterial cell wall lipopolysaccharide (LPS), as previously described (FIG. 5B; Shrum, B. et al., 2014), were imaged by [^18F]4-FDF PET/CT 24 hr after injection. […] The low uptake of [^18F]4-FDF in healthy brain and heart contributed to an increased signal-to-noise ratio for the mapping of cardio- and neuroinflammation in tissues that are otherwise highly glycolytic and have high [^18F]FDG uptake in the absence of disease (FIG. 4C).
Eight-week-old male Balb/C mice received 5 mg/kg LPS through intraperitoneal injection 24-hr prior to planned PET/CT imaging. Mice were supported by being warmed, and by being given fluids subcutaneously 12 hr after LPS injection. The mice were monitored and scored for severity of response to LPS as described previously (Shrum, B. et al., 2014).
PET/CT Imaging. PET/CT imaging was carried out on a Bruker Si78PET/CT scanner with a 4-position hotel having adjustable isoflurane and respiratory monitoring for each position (Bruker USA). Tail veins were catheterized, and an anatomical CT was acquired over the whole of the mouse bodies using the “rat” settings. […] Tumor and tissue TACs were normalized to injected dose, measured by a CRC-15 PET dose calibrator (Capintec, Inc., NJ, USA), and expressed as percentage injected dose per cubic centimeter of tissue (% ID/cc).

[6] = Time-course PET/CT biodistribution and TACs in fed or fasted mice; conditions: Balb/C mice freely fed or overnight fasted, ~7.4 MBq i.v., 60 min PET/CT
Description: Animals received ˜7.4 MBq i.v. immediately upon the initiation of image acquisition, which continued for 60 min. The dynamic scan was binned according to the times indicated.
Solid line=mean; Shaded region=standard deviation. Regions of interest were drawn over the tissues of interest, and the activity within that region of interest of known volume were plotted over the timecourse of the 60 min PET/CT acquisition.

[7] = HepG2 xenograft mice, intravenous injection, PET/CT
[8] = 5 mg/kg LPS i.p., imaged 24 hr after injection, vs vehicle
[9] = healthy brain and heart, PET/CT

Molecule: O=C(CF)[C@@H](O)[C@H](O)[C@H](O)CO [[U^13C]-1-FDF, [U^13C]-1-fluoro-1-deoxyfructose]
- metabolic fate / main ^13C-labelled cellular product ([1]; mass spectrometry): majority of the ^13C-labelled cellular product being [U^13C]-deoxyfluorolactate
- metabolism through the polyol pathway ([1]; mass spectrometry): limited metabolism through the polyol pathway
- metabolic trapping in the cell ([1]; mass spectrometry): neither [U^13C]-1- (FIG. 3E) nor [U^13C]-6-FDF are metabolically trapped

Molecule: O=C(CO)[C@@H](O)[C@H](F)[C@H](O)CO [[U^13C]-4-FDF, [U^13C]-4-fluoro-4-deoxyfructose]
- metabolic fate / main ^13C-labelled cellular product ([1]; mass spectrometry): metabolism halted at [U^13C]-4-fluorodeoxy-1-phosphate
- metabolism through the polyol pathway ([1]; mass spectrometry): capable of proceeding through the polyol pathway
- accumulation of fluorodeoxyfructose-1,6-bisphosphate ([1]; mass spectrometry): accumulation of [U^13C]-4-fluorodeoxyfructose-1,6-bisphophate
- metabolic trapping in the cell ([1]; mass spectrometry): unique ability to be trapped within cells
- time course of metabolite generation ([1]; over 60 min of incubation): steady-state accumulation of [U^13C]-4-fluorodeoxyfructose-1-phosphate and [U^13C]-4-fluorodeoxyfructose-1,6-bisphosphate, and increase in [U^13C]-4-fluorodeoxysorbitol
- formation of glucose-6-phosphate [1]: did not form detectable amounts of glucose-6-phosphate

Molecule: O=C(CO)[C@@H](O)[C@H](O)[C@H](O)CF [[U^13C]-6-FDF, [U^13C]-6-fluoro-6-deoxyfructose]
- metabolic fate / main ^13C-labelled cellular product ([1]; mass spectrometry): substantial amount of [U^13C]-deoxyfluorolactate production
- metabolism through the polyol pathway ([1]; mass spectrometry): capable of proceeding through the polyol pathway
- metabolic trapping in the cell ([1]; mass spectrometry): neither [U^13C]-1- (FIG. 3E) nor [U^13C]-6-FDF are metabolically trapped
- formation of glucose-6-phosphate [1]: did not form detectable amounts of glucose-6-phosphate

Molecule: O=[13C]([13CH2]O)[13C@@H](O)[13C@H](O)[13C@H](O)[13CH2]O [[U^13C]-fructose]
- metabolic fate / main ^13C-labelled cellular product ([1]; mass spectrometry): metabolized as expected through both fructolytic and polyol pathways

Molecule: O=C(CF)[C@@H](O)[C@H](O)[C@H](O)CO [[^18F]1-FDF, 1-deoxy-1-fluoro-fructose]
- retention in cells in vitro and in vivo [2]: poorly retained in cells in vitro and in vivo

- bone uptake ([4]; HepG2 xenograft mice, PET/CT): < 2 % ID/g
- excretion route [4, 7]: renal exceeding hepatobiliary excretion
- tumor accumulation / pattern of radiotracer retention [4, 7]: accumulate in the tumor
- accumulation in normal mouse tissues ([4]; PET/CT, compared with [^18F]FDG): lower than that observed with [^18F]FDG
- retention in naïve brain (concussed mouse brain; naïve Balb/C mice, average images 20-40 min): limited retention
- uptake in healthy brain and heart [5, 9]: low uptake
Molecule: OC[C@H]1OC(O)(CO)[C@@H](O)[C@@H]1[18F] (stereo partly shown) [[^18F]4-FDF, [^18F]-4-fluoro-4-deoxyfructose]
- organ dose deposition [3]: less than or equal to the dose deposition for [^18F]-2-fluoro-2-deoxyglucose
- brain retention following concussion (concussed mouse brain; single closed-head impact at bregma 48 h prior to imaging, images 20-40 min): enhanced radiotracer retention
- brain uptake following LPS treatment [5, 8]: significant increase
- cardiac uptake following LPS treatment [5, 8]: significant increase

Molecule: O=C(CO)[C@@H](O)[C@H](O)[C@H](O)C[18F] [[^18F]6-FDF, [^18F]-6-fluoro-6-deoxyfructose]
- bone uptake ([4]; HepG2 xenograft mice, PET/CT): > 7 % ID/g
- bone uptake over time ([4]; HepG2 xenograft mice, TAC): continued to increase overtime
- tumor accumulation / pattern of radiotracer retention [4, 7]: similarly observed
- bone uptake, fold higher than [^18F]4-FDF ([4]; HepG2 xenograft mice, normalized to [^18F]4-FDF): 3.69 fold

- route of clearance [6]: main route of clearance is the kidney
Molecule: O=C(CO)[C@@H](O)[C@@H]([18F])[C@H](O)CO [[^18F]-4-fluoro-4-deoxytagatose]
- bone uptake [6]: significant bone uptake that is retained overtime

Molecule: [^18F]-2-fluoro-2-deoxy-D-glucose [[^18F]FDG]
- area under the time activity curve (AUC) in brain, fold greater than [^18F]4-FDF ([4]; brain, normalized to AUC of [^18F]4-FDF): 6.01 fold
- uptake in brain and heart in the absence of disease [4, 9]: high
- area under the time activity curve (AUC) in heart, fold greater than [^18F]4-FDF ([4]; heart, normalized to AUC of [^18F]4-FDF): 5.29 fold
